Experimental data as given in patent US20220169646A1, “HETEROCYCLIC COMPOUNDS AND USES THEREOF” (Nuvation Bio Inc., priority 2019, published 2022).

Experiments:
WEE1 kinase enzyme = target: T1, WEE1 kinase enzyme (Homo sapiens, UniProt P30291); experiment: WEE1 IC50 determination, LanthaScreen Terbium Labeled TR-FRET kinase assay; type: biochemical; details: WEE1 enzyme 1 nM, ATP 10 μM, 1 h
T1 construct: purchased Invitrogen, Life Technologies PR7373A
Procedure: IC50 values of compounds against WEE1 kinase enzyme were determined by LanthaScreen™ Terbium Labeled TR-FRET assay. Kinase assays were performed in 1× kinase buffer (#PV6135, Invitrogen, Life Technologies Grand Island, N.Y.) where total reaction volume was 10 μL in low-volume 384-well plates (#4511, Corning). Serially diluted compounds (3-fold) were incubated with WEE1 Enzyme (1 nM) (#PR7373A, Invitrogen, Life Technologies, Grand Island, N.Y.) for 10 min, and a mixture of ATP (10 μM) (#A1852, Sigma, St. Louis, Mo.) and fluorescent-PolyGT substrate (200 nM) (#PV3610, Invitrogen, Life Technologies, Grand Island, N.Y.) was added and incubated in the dark at room temperature for 1 h. After 1 h, a 10 μL stop solution containing terbium labeled antibody (4 nM) (#PV3529, Invitrogen, Life Technologies Grand Island, N.Y.) and EDTA (#E5134, Sigma, St. Louis, Mo.) (20 mM) in TR-FRET dilution buffer (#PV3574, Invitrogen, Life Technologies, Grand Island, N.Y.) was added. Readings were taken in a Synergy Neo Plate reader (BioTek, Winooski, Vt.) at single excitation of 340 nm and dual emission at 495 nm and 520 nm respectively.
The % activity of test samples was calculated as (Sample−Min)*100/(Max−Min). [Max: DMSO control, complete reaction with enzyme & DMSO and Min: No enzyme & DMSO]. Percent inhibition (100−% activity) was fitted to the “four-parameter logistic model” in XLfit for determination of IC50 values.

A427 cells = experiment: Cytotoxicity assay in A427 cell line (resazurin); type: cell-based; details: Homo sapiens, A-427, A427 lung epithelial cell line, 72 hr incubation, inhibition of proliferation
Procedure: A427 (HTB-53; ATCC), a lung epithelial cell line, was seeded in medium (MEM, 41090101; Gibco) at a cell count of 1500 cells per 100 μL per well in a 96 well edge plate (167425; ThermoFisher). Cells were allowed to grow at 37° C. for 24 hr in 5% CO2 environment (culture conditions) in a Nuaire incubator (humidified). Serially diluted test compounds (100 μL) within the desired testing concentration ranges were added to the culture plate and the cells were further incubated in culture conditions for 72 hr. The experiment was terminated at the designated incubation time by replacing the medium with 100 μL of 1 mM of resazurin (R7017; Sigma) prepared in culture medium, and the plates were further incubated in culture conditions for 4-6 hr. Fluorescence was recorded using a multimodal plate reader (Biotek Synergy Neo) at an excitation wavelength of 535 nm and emission wavelength of 590 nm to obtain relative fluorescence units. Data were analysed as follows: the background fluorescence (blank containing only medium) value was subtracted from each reading and normalized with the vehicle control (DMSO treated cells) to obtain percent survival/proliferation. Percent survival was subtracted from 100 to get the percent inhibition of proliferation which was used to calculate IC50 values. Potency of compounds in other cell lines (such as A549, As-Pc-1, Panc 10.05, A172, U-87 MG) may be determined in an analogous manner.

[1] = system: phospho-CDC2 (Tyr15) in A427 cells; experiment: Phospho-CDC2 (Tyr15) sandwich ELISA in A427 cells; type: cell-based; details: Homo sapiens, A-427, PathScan Phospho-CDC2 (Tyr15) ELISA, specified time (e.g., 24 hr)
Procedure: Changes in the levels of phospho-CDC2 following treatment of cells with test compounds were assessed by enzyme-linked immunosorbent assay (ELISA). A427 cells were plated in 6-well plates and cultured for 24 hr to approximately 80-90% confluency. Medium was replaced, and the cells were treated with the vehicle control or the test compound at several different concentrations. After incubation of treated cells in cell culture conditions for a specified time (e.g., 24 hr), cells were rinsed with ice-cold PBS and lysed in 1× cell lysis buffer containing protease inhibitors and phosphatase inhibitors. The cells were scraped from the plate with a cell scraper after a brief incubation on ice and transferred to a centrifuge tube, and then subjected to three freeze-thaw cycles in liquid nitrogen and a 37° C. water bath for further lysis. The lysates were centrifuged to pellet cell debris (using, for example, a 10 min centrifugation of 2000×g at 4° C.) and the supernatants transferred to fresh tubes on ice. The protein concentrations of the samples were estimated by the Bradford method or equivalent. The ELISA was carried out with the PathScan® Phospho-CDC2 (Tyr15) Sandwich ELISA Kit (Cat. #7176, Cell Signaling Technology, Danvers, Mass.) according to the manufacturer's instructions.

T1 sequence (P30291 whole entry): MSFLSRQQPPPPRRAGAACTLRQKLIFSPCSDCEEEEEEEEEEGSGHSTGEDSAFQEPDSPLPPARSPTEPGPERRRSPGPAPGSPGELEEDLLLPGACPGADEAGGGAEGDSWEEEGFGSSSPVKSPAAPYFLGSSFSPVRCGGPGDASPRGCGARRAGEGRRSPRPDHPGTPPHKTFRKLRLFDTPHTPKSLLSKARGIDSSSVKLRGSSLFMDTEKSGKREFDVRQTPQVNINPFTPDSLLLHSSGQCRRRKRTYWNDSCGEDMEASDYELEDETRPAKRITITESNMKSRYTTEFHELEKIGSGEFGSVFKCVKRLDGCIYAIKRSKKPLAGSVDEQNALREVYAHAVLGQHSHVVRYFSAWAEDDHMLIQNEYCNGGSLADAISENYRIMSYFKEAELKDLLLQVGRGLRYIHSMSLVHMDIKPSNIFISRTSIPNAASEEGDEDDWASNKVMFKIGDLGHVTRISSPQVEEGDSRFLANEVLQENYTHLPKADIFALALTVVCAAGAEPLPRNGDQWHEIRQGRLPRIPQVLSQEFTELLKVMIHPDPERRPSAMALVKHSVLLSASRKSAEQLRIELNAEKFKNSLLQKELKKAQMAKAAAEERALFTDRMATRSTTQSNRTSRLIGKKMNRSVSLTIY

Compound | IC50 (WEE1 kinase enzyme) [nM] | IC50 [1] [nM] | IC50 (A427 cells) [nM]
CC(C)n1c(=O)c2cnc(Nc3ccc4c(c3)CNCC4)nc2n1-c1cccc(C(=O)N(C)C)c1 [Compound 1.4, 3-(2-isopropyl-3-oxo-6-((1,2,3,4-tetrahydroisoquinolin-7-yl)amino)-2,3-dihydro-1H-pyrazolo[3,4-d]pyrimidin-1-yl)-N,N-dimethylbenzamide] | 3 |  | 3510
COCC(C)(C)c1cccc(-n2c3nc(Nc4ccc5c(c4)CNCC5)ncc3c(=O)n2C(C)C)n1 [Compound 1.2, 2-isopropyl-1-(6-(1-methoxy-2-methylpropan-2-yl)pyridin-2-yl)-6-((1,2,3,4-tetrahydroisoquinolin-7-yl)amino)-1,2-dihydro-3H-pyrazolo[3,4-d]pyrimidin-3-one] | 4 |  | 295
CC(C)n1cc(-n2c3nc(Nc4ccc5c(c4)CCNC5)ncc3c(=O)n2C(C)C)cn1 [Compound 1.1, 2-isopropyl-1-(1-isopropyl-1H-pyrazol-4-yl)-6-((1,2,3,4-tetrahydroisoquinolin-6-yl)amino)-1,2-dihydro-3H-pyrazolo[3,4-d]pyrimidin-3-one] | 107 |  | > 30000
CC(C)n1c(=O)c2cnc(Nc3ccc4c(c3)CCNC4)nc2n1-c1cccc(C(=O)N(C)C)c1 [Compound 1.3, 3-(2-isopropyl-3-oxo-6-((1,2,3,4-tetrahydroisoquinolin-6-yl)amino)-2,3-dihydro-1H-pyrazolo[3,4-d]pyrimidin-1-yl)-N,N-dimethylbenzamide] | 2 |  | 8160

Now from value to molecule, other results behind:

IC50 (WEE1 kinase enzyme) [nM] | IC50 [1] [nM] | Compound | IC50 (A427 cells) [nM]
21 |  | CC(C)N1CCc2cc(Nc3ncc4c(=O)n(C(C)C)n(-c5ccnc(C(C)(C)C)c5)c4n3)ccc2C1 [Compound 1.5, 1-(2-(tert-butyl)pyridin-4-yl)-2-isopropyl-6-((2-isopropyl-1,2,3,4-tetrahydroisoquinolin-6-yl)amino)-1,2-dihydro-3H-pyrazolo[3,4-d]pyrimidin-3-one] | 2070
4 |  | CC(C)n1c(=O)c2cnc(Nc3ccc4c(c3)CCN(CCCN)C4)nc2n1-c1ccnc(C(C)(C)C)c1 [Compound 1.87, 2,2,2-trifluoroacetaldehyde compound with 6-((2-(3-aminopropyl)-1,2,3,4-tetrahydroisoquinolin-6-yl)amino)-1-(2-(tert-butyl)pyridin-4-yl)-2-isopropyl-1,2-dihydro-3H-pyrazolo[3,4-d]pyrimidin-3-one] | 
8 |  | CC(C)n1c(=O)c2cnc(Nc3ccc4c(c3)CCNC4)nc2n1-c1ccc(C#N)cc1 [Compound 1.86, 4-(2-isopropyl-3-oxo-6-(1,2,3,4-tetrahydroisoquinolin-6-ylamino)-2,3-dihydro-1H-pyrazolo[3,4-d]pyrimidin-1-yl)benzonitrile] | 1070
5 | 278 | CC(C)n1c(=O)c2cnc(Nc3ccc4c(c3)CNCC4)nc2n1-c1ccc(C#N)cc1 [Compound 1.85, 4-(2-isopropyl-3-oxo-6-(1,2,3,4-tetrahydroisoquinolin-7-ylamino)-2,3-dihydro-1H-pyrazolo[3,4-d]pyrimidin-1-yl)benzonitrile] | 1860
